Source: patent US5968912A, “Methods for immunosuppressing” (Immune Modulation, Inc., priority 1997, dated 1999)

Assays:
[1] = tested on: H-2K anti-H-2d cytotoxic T-cells; test: Generation of H-2K anti-H-2d cytotoxic T-cell activity in mice, ex vivo 51Cr-release assay; parameters: species or system mouse (C3H/J; DBA/2 targets)
Experimental: Generation of H-2 Restricted Cytolytic T-lymphocytes in Mice
A mouse correlate of the human "one-way MLR" was developed in inbred strains of mice. The cells of one mouse strain (H-2^d) were injected i.v. into a different mouse strain (H-2^k). Mice were obtained from Charles River Laboratories, Hollister, Calif.). Because of the histoincompatibility between the two strains, the H-2^k mice develop cytotoxic T-cells capable of killing the cells of the H-2^d strain of mice (Abbas, A. K., id), which is the type of reaction observed in humans or animals receiving tissue grafts from histoincompatible donors. The H-2^k mice sensitized against H-2^d cells/allo-antigens were treated with either HE-33 (100 mg/kg i.v. or 400 mg/kg orally) every three days for 9 days or were not treated with drug.
Ex Vivo Assay. On the tenth day, all mice were sacrificed, and spleens were removed to test for splenic T-cell-mediated cytotoxicity against CON-A stimulated DBA/2 spleen cells expressing the H-2^d antigens. CON-A was obtained from Sigma Chem. Co., St. Louis, Mo. Spleen cell suspensions were prepared in complete culture medium and adjusted to desired concentrations. The CON-A blast cells were radiolabeled with ^51 Cr and mixed with the respective splenic effector cells at varying effector:target cell ratios in 96-well microtiter plates. The mixtures were cultured for 4 hr. at 37° C. in a 5% CO2 incubator. Lysis of target cells were assessed essentially as described previously for a ^51 Cr-release assay (Ojo-Amaize, E. A., et al., id) and results expressed as % specific lysis (FIG. 1).
*C3 H/J mouse was injected with 2 × 10^7 DBA/2 spleen cell
for 9 days. HE33 was administered either orally (400 mg/kg) or
intravenously (100 mg/kg) on day 0 and every three days. ConA stimulated
DBA/2 spleen cells were used as target cells.

IL-2 = IL-2 production in PHA-stimulated PBMC cultures; type: cell-based, human; parameters: % Inhibition of IL-2 production: concentration or dose not given beside the values
Experimental: (§1) Production of autocrine growth factors (IL-2, IL-4, IL-10 and Interferon-gamma) in PHA-stimulated human PBMC cultures
(§2) Culture supernatants were collected at the times indicated and frozen at -20° C. At the end of 96 hr., all supernatants were assayed by enzyme immunoassay for the presence of the cytokines: interleukin-2, -4, -10 and interferon (IFN)-gamma. Results were expressed in pg/mL concentration of cytokine and % inhibition of cytokine production.

IL-10 = IL-10 production in PHA-stimulated PBMC cultures; type: cell-based, human; parameters: % Inhibition of IL-10 production: concentration or dose not given beside the values
Experimental: as §1, §2

[2] = tested on: Protein Kinase-C-Mediated T-cell Proliferation (PBMC); test: PK-C-mediated T-cell proliferation (PMA + A23187); type: cell-based, human; conditions: PMA 1.25 ng/mL + A23187 0.25 μM
Experimental: Determination of the effect of HE-33 on PK-C-mediated signaling pathway
PBMC of a healthy volunteer were cultured in 96-well microtiter plates at 2×10^5 cells/well. […] Forskolin is an agent well known to increase intacellular cAMP levels by activating adenylate cyclase. Cultures were incubated for 3 days at 37° C. in a 5% CO2 incubator. Proliferative response was determined by incorporation of ^3 H-thymidine.. The results were expressed in CPM and % inhibition of proliferation (Table 7).

[3] = Single dose range-finding toxicity study in mice; type: in vivo, mouse (Swiss Webster); conditions: mouse, in vivo, single IV administration, mice
Experimental: Single dose range-finding study of HE-33 in mice
Swiss Webster mice (Charles River Laboratories, Hollister, Calif.) were used for the preliminary toxicology study. One mouse per dose level was administered a single intravenous (IV) dose of either 1.5, 15, 75, 100, 150, 200, 300 or 400 mg of HE-33/kg body weight. The dose volume for all mice receiving saline or formulations of HE-3 3 was 10 mL/kg body weight. All doses were administered as a slow-push IV injection in the tail vein. Day 1 of the study for each mouse occurred on the day of administration of the drug or the saline.
Clinical observations/body weights
Each mouse was observed closely for clinical signs of toxicity at approximately 10, 30 and 60 minutes and 5 hours after dosing on Day 1, and once daily on Days 2-8. In addition, mortality checks were performed twice daily. Body weights were obtained on each mouse prior to dosing on Day 1. Body weights (Day 1) for the mice used in this study ranged between 27.3 and 32.5 g (Table 8).
^a Animals were dosed with saline adjusted to pH 8.55.
^b Observations are recorded as present (x) or not observed (--).
^c Additional observation was reported in the time interval closest t
^d FPSR = Flattened posture with or without closed eyes; animal would
periodically have a startled response in response to or without a noise

## CCCN(CCC)c1ncnc2c1ncn2[C@@H]1O[C@@H]2COP(=O)(O)O[C@H]2[C@H]1O [HE-33, N^6,N^6 -di-n-Propyl-c-AMP]
[1]; I.V. injected 100 mg/kg
  L.U.: 1 L.U.
[1]; I.V. injected 100 mg/kg every three days
  % Inhibition of cytotoxic T-cell activity: 92%
[1]; I.V. injected 100 mg/kg, ratio 3.12:1
  % Lysis: 0%
[1]; I.V. injected 100 mg/kg, ratio 6.25:1
  % Lysis: 0%
[1]; I.V. injected 100 mg/kg, ratio 12.5:1
  % Lysis: 0%
[1]; I.V. injected 100 mg/kg, ratio 25:1
  % Lysis: 1%
[1]; oral fed 400 mg/kg
  % Inhibition of cytotoxic T-cell activity: 32%
  L.U.: 9 L.U.
[1]; oral fed 400 mg/kg, ratio 3.12:1
  % Lysis: 1%
[1]; oral fed 400 mg/kg, ratio 6.25:1
  % Lysis: 2%
[1]; oral fed 400 mg/kg, ratio 12.5:1
  % Lysis: 2%
[1]; oral fed 400 mg/kg, ratio 25:1
  % Lysis: 5%
IL-2; 24 hours
  % Inhibition of IL-2 production: 0%
  IL-2 production: 418 pg/mL
IL-2; 48 hours
  % Inhibition of IL-2 production: 76%
  IL-2 production: 148 pg/mL
IL-2; 72 hours
  % Inhibition of IL-2 production: 70%
  IL-2 production: 51 pg/mL
IL-2; 96 hours
  % Inhibition of IL-2 production: 0%
  IL-2 production: 48 pg/mL
IL-10; 24 hours
  % Inhibition of IL-10 production: 21%
  IL-10 production: 441 pg/mL
IL-10; 48 hours
  % Inhibition of IL-10 production: 0%
  IL-10 production: 1304 pg/mL
IL-10; 72 hours
  % Inhibition of IL-10 production: 0%
  IL-10 production: 790 pg/mL
IL-10; 96 hours
  % Inhibition of IL-10 production: 0%
  IL-10 production: 991 pg/mL
[2]; 100 μM
  Proliferation: 31 CPM
[2]; Homo sapiens, T-cell
  inhibition at 100 µM: 97%
[3]
  No-effect level (NOEL): 100 mg/kg
[3]; read-out: maximum tolerated dose (MTD)
  MTD: ≥ 400 mg/kg
